Holding throughout (format): binding
The target in one assay is T1, STAT4 (Homo sapiens, UniProt Q14765).
T1 sequence (Q14765 1-748): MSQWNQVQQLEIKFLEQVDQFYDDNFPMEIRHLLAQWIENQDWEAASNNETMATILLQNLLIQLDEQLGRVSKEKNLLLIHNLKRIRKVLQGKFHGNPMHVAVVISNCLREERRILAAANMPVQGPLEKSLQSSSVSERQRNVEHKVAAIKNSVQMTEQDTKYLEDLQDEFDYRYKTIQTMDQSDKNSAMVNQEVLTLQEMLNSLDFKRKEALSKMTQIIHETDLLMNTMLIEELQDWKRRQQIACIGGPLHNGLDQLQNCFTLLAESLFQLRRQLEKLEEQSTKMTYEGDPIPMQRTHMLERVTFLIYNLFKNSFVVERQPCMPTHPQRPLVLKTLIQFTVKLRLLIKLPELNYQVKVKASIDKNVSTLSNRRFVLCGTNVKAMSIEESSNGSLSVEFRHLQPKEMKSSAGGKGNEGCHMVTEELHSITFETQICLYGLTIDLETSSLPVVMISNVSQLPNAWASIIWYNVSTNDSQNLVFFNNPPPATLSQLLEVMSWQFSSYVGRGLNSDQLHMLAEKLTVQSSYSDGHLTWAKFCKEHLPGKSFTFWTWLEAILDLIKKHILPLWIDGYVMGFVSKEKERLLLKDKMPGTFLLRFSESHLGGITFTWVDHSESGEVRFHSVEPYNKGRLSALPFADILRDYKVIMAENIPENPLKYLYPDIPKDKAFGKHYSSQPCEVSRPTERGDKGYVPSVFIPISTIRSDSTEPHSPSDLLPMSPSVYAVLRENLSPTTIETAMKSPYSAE
Description: HTRF assay, STAT4. The following applies: STAT4 30 nM, without reducing agent, 1 h. An excerpt:
(§1) The azo dyes PPADS and iso‐PPADS have a deep red color in aqueous solution. […] In order to exclude this possibility, we established homogeneous time‐resolved fluorescence resonance energy transfer (HTRF) assays to confirm the degree of binding between STAT4, STAT5a, and STAT5b and the respective 5‐carboxyfluorescein‐labeled binding peptides used in the FP assay. In addition, an HTRF assay was established for STAT3, one of the STAT proteins targeted to a lesser extent in FP assays, as a specificity control (Figure 1B,C). The STAT protein constructs each contain a 6x‐His‐tag.^[ [15], [16], [17], [22] ^] A Tb^3+‐cryptate fused to an anti‐6x‐His antibody was chosen as the long‐lived fluorescent donor, while the carboxyfluorescein linked to the respective STAT‐binding peptides served as the acceptor (Figure 2A). Emission was measured with a time delay of 60 μs after excitation, allowing any initial compound fluorescence to decay beforehand. […]
(§2) Screening of chemical libraries comprising approximately 5000 known bioactive compounds in fluorescence polarization-based assays against phosphorylation-dependent protein-protein interaction domains, including STAT proteins, has been described.[1] […]
(§3) Fluorescence polarization assays
(§4) Competitive fluorescence polarization (FP) assays for STAT1,[2] […] Briefly, peptide binding to proteins was analyzed using the following carboxyfluorescein (CF) -labelled pepti des at a concentration of 10 nM: STAT1: 5-CF-GpYDKPHVL-OH, STAT3: 5-CF-GpYLPQTV -NH2, STAT4: 5-CF-GpYLPQNID-OH, STAT5a and STAT5b: 5-CF-GpYLVLDKW-OH, STAT6: 5- […]
(§5) CFGp[…]-OH. […] FP was measured using an Infinite F500 plate reader (Tecan) and measurements were converted into percent inhibition according to the binding curve equation. Curves were plotted and best fits calculated using OriginPro […]
(§6) Homogenous time-resolved fluorescence (HTRF) assays for STAT3, STAT4, STAT5a and STAT5b were carried out using Cisbio Monoclonal Antibody Anti-6His-Tb Gold as the fluorescence donor (Perkin Elmer) and the corresponding CF-labelled binding peptide as the acceptor. […] The average reading from 3 wells was obtained. […]

The next assay addresses T2, STAT5b (Homo sapiens, UniProt P51692).
T2 sequence (P51692 1-787): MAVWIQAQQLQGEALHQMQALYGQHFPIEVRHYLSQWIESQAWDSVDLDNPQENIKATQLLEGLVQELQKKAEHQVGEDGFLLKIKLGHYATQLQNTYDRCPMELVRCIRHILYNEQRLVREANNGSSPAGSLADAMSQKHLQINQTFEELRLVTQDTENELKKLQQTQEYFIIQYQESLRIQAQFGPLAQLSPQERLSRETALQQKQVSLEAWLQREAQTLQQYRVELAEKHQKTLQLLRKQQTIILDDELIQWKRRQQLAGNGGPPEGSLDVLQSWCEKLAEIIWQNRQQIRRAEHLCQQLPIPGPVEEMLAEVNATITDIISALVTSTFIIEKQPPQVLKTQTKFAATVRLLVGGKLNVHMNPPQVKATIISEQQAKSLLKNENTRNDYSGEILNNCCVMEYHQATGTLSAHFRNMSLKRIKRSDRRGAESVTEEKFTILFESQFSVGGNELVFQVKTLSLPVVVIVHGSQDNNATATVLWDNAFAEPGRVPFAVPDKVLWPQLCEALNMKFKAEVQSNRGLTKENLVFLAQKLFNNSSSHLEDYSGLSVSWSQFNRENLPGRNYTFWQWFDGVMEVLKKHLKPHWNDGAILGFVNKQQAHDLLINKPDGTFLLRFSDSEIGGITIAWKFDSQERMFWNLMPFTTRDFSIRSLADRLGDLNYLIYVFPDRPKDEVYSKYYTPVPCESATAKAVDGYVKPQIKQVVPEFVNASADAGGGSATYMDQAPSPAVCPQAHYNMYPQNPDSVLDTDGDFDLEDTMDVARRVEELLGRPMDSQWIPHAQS
Description: HTRF assay, STAT5b. Conditions: STAT5b 80 nM, without reducing agent, 1 h.
Source text: as §1, §2, §3, §4, §5, §6

Another assay concerns the target T3, STAT5a (Homo sapiens, UniProt P42229).
T3 sequence (P42229 1-794): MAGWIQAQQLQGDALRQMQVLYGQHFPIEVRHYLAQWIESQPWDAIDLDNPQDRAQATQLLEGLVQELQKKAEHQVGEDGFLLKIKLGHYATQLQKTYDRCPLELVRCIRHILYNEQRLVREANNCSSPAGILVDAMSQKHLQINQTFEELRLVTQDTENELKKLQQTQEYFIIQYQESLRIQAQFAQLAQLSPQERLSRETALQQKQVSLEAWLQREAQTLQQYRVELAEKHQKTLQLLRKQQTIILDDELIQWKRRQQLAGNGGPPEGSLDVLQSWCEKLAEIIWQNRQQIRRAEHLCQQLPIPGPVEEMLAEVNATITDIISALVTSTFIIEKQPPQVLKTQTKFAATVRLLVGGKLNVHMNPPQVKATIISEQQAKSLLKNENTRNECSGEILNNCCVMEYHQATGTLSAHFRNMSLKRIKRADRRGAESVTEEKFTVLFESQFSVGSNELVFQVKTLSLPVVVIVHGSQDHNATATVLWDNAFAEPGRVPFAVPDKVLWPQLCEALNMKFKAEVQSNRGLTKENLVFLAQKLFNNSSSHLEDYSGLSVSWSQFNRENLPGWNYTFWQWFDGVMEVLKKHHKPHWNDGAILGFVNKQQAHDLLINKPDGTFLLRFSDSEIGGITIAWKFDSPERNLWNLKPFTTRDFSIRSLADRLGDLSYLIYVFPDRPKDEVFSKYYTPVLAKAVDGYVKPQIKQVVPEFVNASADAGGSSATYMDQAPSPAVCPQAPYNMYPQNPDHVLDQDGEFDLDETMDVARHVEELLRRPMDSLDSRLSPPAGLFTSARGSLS
Description: HTRF assay, STAT5a. Conditions: STAT5a 110 nM, without reducing agent, 1 h.
Source text: as §1, §2, §3, §4, §5, §6

Non-standard residues stand in square brackets, D forms with d. Residues, ends and D or L forms follow the SMILES beside them. pY = N[C@@H](Cc1ccc(OP(=O)(O)O)cc1)C(=O)O

At STAT4, `CC[C@H](C)[C@H](NC(=O)[C@H](CC(N)=O)NC(=O)[C@H](CCC(N)=O)NC(=O)[C@@H]1CCCN1C(=O)[C@H](CC(C)C)NC(=O)[C@H](Cc1ccc(OP(=O)(O)O)cc1)NC(=O)CNC(C)=O)C(=O)N[C@@H](CC(=O)O)C(=O)O` [Ac‐GpYLPQNID] (Ac-G[pY]LPQNID-OH) had an IC50 of 2010 ± 80 nM.

For the molecule `CC(C)C[C@H](NC(=O)[C@H](Cc1c[nH]c2ccccc12)NC(=O)[C@H](CCCCN)NC(=O)[C@H](CC(=O)O)NC(=O)[C@H](CC(C)C)NC(=O)[C@@H](NC(=O)[C@H](CC(C)C)NC(=O)[C@H](Cc1ccc(OP(=O)(O)O)cc1)NC(=O)[C@@H](NC(=O)[C@@H](N)CC(=O)O)[C@@H](C)O)C(C)C)C(=O)O` (H-DT[pY]LVLDKWL-OH), the IC50 against STAT5b worked out at 4.18 ± 0.25 µM; against STAT5a, 2480 ± 270 nM.

These data come from paper PMC12442245, “Activity Analysis of the P2X Receptor Antagonist PPADS against Signal Transducer and Activator of Transcription Proteins” (Chembiochem, 2025).
